Where no end group is shown, it is not given here. [ ]: non-standard residue; d: D form. pGlu = O=C1CC[C@@H](C(=O)O)N1

The record followed here is patent US20160238590A1, “COMPOSITIONS AND METHODS RELATED TO OAT SENSITIVITY” (IMMUSANT, INC., priority 2013, published 2016).

Format in all cases: cell-based, human
Assay [1] deals with Patient 6 TCC-01. Put plainly: IFN-γ ELISpot with T cell clone. The conditions noted are these: TCC Patient 6 TCC-01 (Table 5); mean no antigen 2. The protocol:
(§1) Peripheral blood mononuclear cells (PBMC) were isolated from heparinized whole blood using Ficoll-Paque™ Plus density-gradient centrifugation (GE Healthcare). IFN-γ ELISpot (Mabtech) was set up as previously described^8.
(§2) Isolation of TCC from CD patients was carried out as previously described^8. Briefly, CFSE-labeled PBMC were incubated with antigen for 7 days in IMDM supplemented with 5% heat-inactivated pooled human serum (PHS), 2 mM GlutaMAX™, 100 μM MEM non-essential amino acids (both from Gibco, Invitrogen), and 50 μM 2-mercaptoethanol (Sigma). Proliferated cells were single-cell sorted into 96-well plates containing IL-2, IL-4, anti-CD3 mAb, irradiated feeder cells (allogeneic PBMC and JY-EBV). TCC were expanded and maintained in IL-2 and IL-4 and tested for specificity by ELISpot with irradiated HLA-matched PBMC as antigen-presenting cells. Expanded clones were tested for HLA-DQ restriction, TCR Vbeta usage, and with lysine scans to work out minimal epitopes. See Table 1 below for TCC and epitope information.

Assay [2] has as its system Patient 14 TCC-01. Briefly: IFN-γ ELISpot with T cell clone. The conditions noted are these: TCC Patient 14 TCC-01 (Table 5); mean no antigen 11.3, high background, SFU >25 considered as positive responses. The protocol:
as §1, §2

The subject of assay [3] is Patient 2 TCC-01. Briefly: IFN-γ ELISpot with T cell clone. The conditions noted are these: TCC Patient 2 TCC-01 (Table 5); mean no antigen 1.1. The protocol:
as §1, §2

Assay [4] deals with PBMC. Put plainly: IFN-γ ELISpot on PBMC of CD patients after 3-day barley challenge. The conditions noted are these: after barley challenge.
Text: (§3) Australian Caucasian HLA-DQ2.5^+ and/or HLA-DQ8^+ CD subjects were recruited by advertisement in the Coeliac Society of Victoria newsletter and all had biopsy-proven CD conforming to ESPGHAN criteria. Patients had been on strict gluten free diet for at least 4 weeks prior to commencing grain challenge. Patients underwent 3-day grain challenge with oats, barley, or combined wheat, barley, and rye muffins, and 6 days after commencement, blood was collected. Day 0 responses were not observed in the selection of patients tested, as described previously^8.
(§4) Oats challenge consisted of 100 g dry weight daily of one of three commercial brands of oats: one not tested for wheat contamination (Uncle Toby's; Oats #1), and two shown by R5 ELISA to contain less than 20 ppm wheat gluten (Tilquhilie Pudding; Oats #2 and Freedom Food; Oats #3). Barley challenge consisted of pearl barley (Ward McKenzie) cooked into a risotto (150 g dry weight daily) and the wheat challenge consisted of four 50 g slices of wheat bread daily (Baker's Delight white loaf cut to toasting thickness). The combined wheat, barley, and rye challenge consisted of muffins baked with wheat flour (White Wings), barley flour (Four Leaf Milling), and rye flour (Four Leaf Milling; 22-25 g dry weight each daily). A symptom diary based on a […] Likert scale was completed by participants daily from baseline until day 6.
(§5) Two avenin peptide libraries were utilized for epitope screening. These were designed using avenin sequences from GenBank and a customized algorithm, as previously described^9. The initial library consisted of 199 screening-grade 20 mers including all possible 12 mers (Mimotopes). This library was screened with and without tTG pre-treatment. The second library consisted of additional avenin sequences that were synthesized with glutamate substitution at sites predicted to be deamidated by published algorithms^10, 11 removing the requirement for tTG treatment. This library contained 369 screening-grade 20 mers, including all possible 12 mers (Pepscan). The second round avenin library contained wild-type and deamidated versions of the most immunogenic sequences (25 high quality 16 mers from Mimotopes). High quality peptides containing previously described immunogenic sequences from wheat, barley, and rye were used to test for cross-reactivity^8 (Pepscan). High quality hordein and avenin peptides for TCC testing and biochemical studies were ordered from Pepscan, Mimotopes, or GL Biochem.
as §1

Assay [5] concerns PBMC. Briefly: IFN-γ ELISpot on PBMC of CD patients on day 6 after 3-day oats challenge. Conditions: for IFN-γ ELISpot response (raw SFU) / significant SFU as a percentage of maximal peptide SFU: after 3-day oats challenge.
Text: as §3, §4, §5, §1

Turning to “pEQPFPEQPFPEQPQPY ([pGlu]QPFPEQPFPEQPQPY) [barley peptide, AFM77740.1 (21-36) [Q21 to pyroglutamate, Q26 to E, Q31 to E]]”, the results for the “IFN-γ ELISpot response (raw SFU)” value in assay [1], in assay [2] and in assay [3] were 64 SFU, 27 SFU and 229 SFU, respectively.
As to “AQFDPSEQYQPYPEQQQPIL [avenin library peptide]”, the “IFN-γ ELISpot response (raw SFU)” value in assay [4] (Patient 1, peptide 50 μg/ml) was 35 SFU; in assay [4] (Patient 2, peptide 50 μg/ml), 159 SFU; in assay [4] (Patient 3, peptide 50 μg/ml), 24 SFU. Further, the “significant SFU as a percentage of maximal peptide SFU” value (shortened to “significant SFU as a percentage”) in assay [4] (Patient 1, peptide 50 μg/ml) is “^^ (^^: 10-20%)”; in assay [4] (Patient 2, peptide 50 μg/ml), “*** (***: >70%)”; in assay [4] (Patient 3, peptide 50 μg/ml), “^^ (^^: 10-20%)”.
For the substance “PQPYPEQPQPFPQQPP [barley peptide, 1103203B (39-54) [Q44 to E]]”, the “IFN-γ ELISpot response (raw SFU)” value is recorded as 69 SFU in assay [1], 12 SFU in assay [2] and 292 SFU in assay [3].
On to “EQYQPYPEQQQPFLQQQPLE [avenin library peptide]”, for which the “IFN-γ ELISpot response (raw SFU)” value turned out to be 25 SFU in assay [4] (Patient 1, peptide 50 μg/ml); 196 SFU in assay [4] (Patient 2, peptide 50 μg/ml); 24 SFU in assay [4] (Patient 3, peptide 50 μg/ml). In addition, the “significant SFU as a percentage” value in assay [4] (Patient 1, peptide 50 μg/ml) is on record as “(^: 5-10%)”; in assay [4] (Patient 2, peptide 50 μg/ml), “*** (***: >70%)”; in assay [4] (Patient 3, peptide 50 μg/ml), “^^ (^^: 10-20%)”.
“SEQYQPYPEQEQPFLQEQPL [avenin library peptide]”: the “IFN-γ ELISpot response (raw SFU)” value in assay [4] (Patient 1, peptide 50 μg/ml) is reported as 122 SFU; in assay [4] (Patient 2, peptide 50 μg/ml), 208 SFU; in assay [4] (Patient 3, peptide 50 μg/ml), 34 SFU. Besides, the “significant SFU as a percentage” value in assay [4] (Patient 1, peptide 50 μg/ml) is listed as “* (*: 20-40%)”; in assay [4] (Patient 2, peptide 50 μg/ml), “*** (***: >70%)”; in assay [4] (Patient 3, peptide 50 μg/ml), “* (*: 20-40%)”.
For the substance “QPYPEQEQPILEEELLLQQQ [oats avenin peptide, CBL51491.1 (22-41) [Q28, Q33, Q34, Q35 to E]; one of two coded A01]”, the “IFN-γ ELISpot response (raw SFU)” value worked out at 16 SFU in assay [1] and 275 SFU in assay [3].
With EQYQPYPEQQPFMQPL [avenin peptide], the “IFN-γ ELISpot response (raw SFU)” value in assay [4] (Patient 1, peptide 50 μg/ml) amounted to 19 SFU; in assay [4] (Patient 2, peptide 50 μg/ml), 25 SFU; in assay [4] (Patient 3, peptide 50 μg/ml), 33 SFU; in assay [5] (patient P1, peptide 1 μg/ml), 0 SFU; in assay [5] (patient P1, peptide 10 μg/ml) it was 0 SFU; in assay [5] (patient P1, peptide 100 μg/ml) it was 4 SFU. Besides, the “IFN-γ ELISpot response (raw SFU)” value worked out at 0 SFU in assay [5] (patient P2, peptide 1 μg/ml); 3 SFU in assay [5] (patient P2, peptide 10 μg/ml); 49 SFU in assay [5] (patient P2, peptide 100 μg/ml); 3 SFU in assay [5] (patient P3, peptide 1 μg/ml); 18 SFU in assay [5] (patient P3, peptide 10 μg/ml); 5 SFU in assay [5] (patient P3, peptide 100 μg/ml). The “IFN-γ ELISpot response (raw SFU)” value in assay [5] (patient P11, peptide 1 μg/ml) is 3 SFU; in assay [5] (patient P11, peptide 10 μg/ml), 0 SFU; in assay [5] (patient P11, peptide 100 μg/ml), 54 SFU; in assay [5] (patient P12, peptide 1 μg/ml) it was 0 SFU; in assay [5] (patient P12, peptide 10 μg/ml) it was 2 SFU; in assay [5] (patient P12, peptide 100 μg/ml), 31 SFU. The “IFN-γ ELISpot response (raw SFU)” value in assay [5] (patient P13, peptide 50 μg/ml) amounted to 0 SFU. For the same substance, the “significant SFU as a percentage” value in assay [4] (Patient 1, peptide 50 μg/ml) is given as “(^: 5-10%)”; in assay [4] (Patient 2, peptide 50 μg/ml), “^^ (^^: 10-20%)”; in assay [4] (Patient 3, peptide 50 μg/ml), “* (*: 20-40%)”; in assay [5] (patient P2, peptide 100 μg/ml), “*** (***: >70%)”; in assay [5] (patient P3, peptide 10 μg/ml), “* (*: 20-40%)”; in assay [5] (patient P11, peptide 100 μg/ml), “*** (***: >70%)”. In addition, the “significant SFU as a percentage” value in assay [5] (patient P12, peptide 100 μg/ml) is “** (**: 40-70%)”.
For “PSEQYQPYPEQEQPILQQEE [avenin library peptide]”, the “IFN-γ ELISpot response (raw SFU)” value in assay [4] (Patient 1, peptide 50 μg/ml) is on record as 27 SFU; in assay [4] (Patient 2, peptide 50 μg/ml), 159 SFU; in assay [4] (Patient 3, peptide 50 μg/ml) it was 7 SFU. The “significant SFU as a percentage” value in assay [4] (Patient 1, peptide 50 μg/ml) is “(^: 5-10%)”; in assay [4] (Patient 2, peptide 50 μg/ml) it was “*** (***: >70%)”.
On to “QYQPYPEQEQPILQQ [partially deamidated avenin peptide]”, for which the “patients in which the peptide was the most immunogenic” value in assay [5] (oats responders after 3-day oats challenge) is recorded as 5 patients.
Regarding “SEQYQPYPEQQEPFVQ [avenin peptide of Genbank Q09097.1, wild-type]”, the “IFN-γ ELISpot response (raw SFU)” value was determined as 3 SFU in assay [5] (patient P1, peptide 1 μg/ml); 5 SFU in assay [5] (patient P1, peptide 10 μg/ml); 3 SFU in assay [5] (patient P1, peptide 100 μg/ml); 3 SFU in assay [5] (patient P2, peptide 1 μg/ml); 3 SFU in assay [5] (patient P2, peptide 10 μg/ml); 16 SFU in assay [5] (patient P2, peptide 100 μg/ml). Further, the “IFN-γ ELISpot response (raw SFU)” value in assay [5] (patient P3, peptide 1 μg/ml) is 8 SFU; in assay [5] (patient P3, peptide 10 μg/ml), 9 SFU; in assay [5] (patient P3, peptide 100 μg/ml), 4 SFU; in assay [5] (patient P11, peptide 1 μg/ml), 0 SFU; in assay [5] (patient P11, peptide 10 μg/ml), 0 SFU; in assay [5] (patient P11, peptide 100 μg/ml), 0 SFU. The “IFN-γ ELISpot response (raw SFU)” value in assay [5] (patient P12, peptide 1 μg/ml) is 1 SFU; in assay [5] (patient P12, peptide 10 μg/ml), 3 SFU; in assay [5] (patient P12, peptide 100 μg/ml), 0 SFU; in assay [5] (patient P13, peptide 50 μg/ml) it was 9 SFU. Besides, the “significant SFU as a percentage” value in assay [5] (patient P2, peptide 100 μg/ml) is “* (*: 20-40%)”.
As to “EQYQPYPEEQPFMQPL [partially deamidated avenin peptide]”, the “IFN-γ ELISpot response (raw SFU)” value was determined as 1 SFU in assay [5] (patient P1, peptide 1 μg/ml); 1 SFU in assay [5] (patient P1, peptide 10 μg/ml); 2 SFU in assay [5] (patient P1, peptide 100 μg/ml); 2 SFU in assay [5] (patient P2, peptide 1 μg/ml); 0 SFU in assay [5] (patient P2, peptide 10 μg/ml); 27 SFU in assay [5] (patient P2, peptide 100 μg/ml). In addition, the “IFN-γ ELISpot response (raw SFU)” value in assay [5] (patient P3, peptide 1 μg/ml) stood at 0 SFU; in assay [5] (patient P3, peptide 10 μg/ml) it was 2 SFU; in assay [5] (patient P3, peptide 100 μg/ml), 2 SFU; in assay [5] (patient P11, peptide 1 μg/ml), 0 SFU; in assay [5] (patient P11, peptide 10 μg/ml), 0 SFU; in assay [5] (patient P11, peptide 100 μg/ml) it was 1 SFU. Besides, the “IFN-γ ELISpot response (raw SFU)” value in assay [5] (patient P12, peptide 1 μg/ml) amounted to 0 SFU; in assay [5] (patient P12, peptide 10 μg/ml), 0 SFU; in assay [5] (patient P12, peptide 100 μg/ml), 0 SFU; in assay [5] (patient P13, peptide 50 μg/ml), 0 SFU. For the same substance, in assay [5] (patient P2, peptide 100 μg/ml), the “significant SFU as a percentage” value is “** (**: 40-70%)”.
Regarding “EQYQPYPEQEQPFVQQQPPF [avenin library peptide]”, the “IFN-γ ELISpot response (raw SFU)” value is reported as 99 SFU in assay [4] (Patient 1, peptide 50 μg/ml); 192 SFU in assay [4] (Patient 2, peptide 50 μg/ml); 14 SFU in assay [4] (Patient 3, peptide 50 μg/ml); 30 SFU in assay [1]; 283 SFU in assay [3]. In addition, the “significant SFU as a percentage” value in assay [4] (Patient 1, peptide 50 μg/ml) is given as “* (*: 20-40%)”; in assay [4] (Patient 2, peptide 50 μg/ml), “*** (***: >70%)”; in assay [4] (Patient 3, peptide 50 μg/ml), “(^: 5-10%)”.
